{"source": "patent US20230218681A1", "about": "“BREVUNDIMONAS SP FOR USE IN DISEASE PREVENTION AND TREATMENT” (Zivo Bioscience, Inc., priority 2021, published 2023)", "key": {"[1]": {"test_system": "Eimeria acervulina, Eimeria maxima, and Eimeria tenella", "test": "First study: floor-pen broilers challenged with Eimeria on Day 7, test material in feed, Days 0-28", "format": "in vivo, broiler chicks", "method": "(§1) Chicks were obtained within twelve hours of hatching from fecal contaminated flocks at a commercial hatchery on Day 0 (hatch and placement day). Three-hundred mixed-sex broiler chicks (50:50 sex ratio) were randomly assigned on Day 0 by individual weights to each of several test group pens, each with replicates. Only antibiotic-free birds were sourced, and no coccidiosis vaccine was administered at the hatchery or at any time during the study. Chicks were evaluated upon receipt for signs of disease or other complications that could affect study outcome. Weak birds were humanely sacrificed. Birds were not replaced during the study.\n(§2) Following examination, chicks were weighed and allocated to pens for the various treatment groups using a randomized block design. Weight distribution across the treatment groups was assessed prior to feeding by comparing the individual test groups' standard deviations of the mean against that of the control group. Weight distribution across the groups was considered acceptable for this study when differences between control and test groups were within one standard deviation.\n(§3) All birds received nutritionally adequate diets as pellets (crumbled pellets for Days 1-14). Birds were fed their respective treatment diets ad libitum from day of hatch to 28 days of age. (The typical average market age is 42 days.) Birds were raised on built-up litter to further mimic stress conditions typically experienced in poultry production.\n(§4) All diets were offered ad libitum without restrictions to full-fed consumption, except for an 8-hour fasting period prior to cocci-challenge on Day 7 when all birds assigned to challenge test groups received oocyst-inoculated feed containing a mixture of Eimeria acervulina, Eimeria maxima, and Eimeria tenella. Dietary requirements for protein, lysine, methionine, methionine+cystine, arginine, threonine, tryptophan, total phosphorus, available phosphorus, total calcium, dietary sodium, and dietary choline were met by adjusting the concentrations of corn and soybean meal ingredients, as well as other minor ingredients commonly used in poultry production.\n(§5) Pens were monitored for environmental conditions, including temperature, lighting, water, feed, litter condition, and unanticipated house conditions/events. Pens were checked daily for mortality. Examinations were performed on all broilers found dead or moribund. Mortalities were recorded (date and weight) and examined (both internal and external body mass).\nCocci-Challenge—On Day 7, all birds assigned to challenged test groups received oocyst-inoculated feed containing a mixture of Eimeria acervulina, Eimeria maxima, and Eimeria tenella. Adequate feed was precisely weighed and provided to birds to consume at the rate of 100% fill-capacity on average. Prior to the challenge, all birds were starved for eight hours. Inoculated feed was provided to the birds. Following a specific time, all remaining inoculated feed was removed and weighed to assure equal consumption per pen and per bird. The quantity of feed (both placed and withdrawn) was recorded on each pen's feed record.\nDifferences between groups were evaluated at P<0.05, employing Treatment x Replicate RCB (Randomized Complete Block) design. Particularly and as noted, “Significance (P<0.05)” refers to means for groups not sharing common letter designations in the figures which indicates significant difference (P<0.05) between said groups, as determined by Duncan's New Multiple Range Test (MRT 1955)."}, "[2]": {"test_system": "Eimeria acervulina, Eimeria maxima, and Eimeria tenella", "test": "Second study: dried bacterial biomass feed ingredients in cocci-challenged floor-pen broilers on built-up litter, Days 1-28", "format": "in vivo, broiler chicks", "text": "A second study was undertaken to determine the response and efficacy of a dried bacterial biomass feed ingredient incorporated at a specific amount into a commercial-type corn-soybean diet and fed to floor-pen raised broilers. The second study was undertaken over a 28-day period, from Day 1 to Day 28.\nThe animals were raised under a disease challenge environment (cocci-challenge+built-up litter). For the study and as set forth in FIG. 15, six groups were established, including a first group that received no feed additive ingredient, a second group treated with the anti-coccidia drug Coban® (Elanco), a third group fed a Variovorax-based biomass, a fourth group fed a Brevundimonas-based biomass, a fifth group fed a Sphingomonas-based biomass, and a sixth group fed a 50:50 mixture of a Variovorax and Brevundimonas-based biomass. The feed included corn and soybean meal rations with normal nutritional formulations. No coccidiostat (except for treatment with Coban® provided to the second group) or ABF (antibiotic free products) were administered during the study. No coccidiosis vaccine was administered at the hatchery or during the course of the study.\nas §1, with “A total of 1,800 mixed sex broiler chicks were obtained” for “Chicks were obtained”, “placement day). A number of mixed-sex broiler” for “placement day). Three-hundred mixed-sex broiler”, “weights to one of several” for “weights to each of several”\nas §2, §3\nas §4, with “assigned to the challenge test” for “assigned to challenge test”\nas §5\nCocci-Challenge—On Day 7, all birds assigned to the challenge test groups received oocyst-inoculated feed containing a mixture of Eimeria acervulina, Eimeria maxima, and Eimeria tenella. Adequate feed was precisely weighed and provided to birds to consume at the rate of 100% fill-capacity on average. […]"}, "[3]": {"settings": "cocci challenge Day 7, Days 1-28"}, "[4]": {"settings": "mortality-corrected, cocci challenge Day 7, Days 1-28"}}}
{"smiles": "CC[C@@]1([C@@H]2O[C@@H]([C@H]3O[C@@](O)(CO)[C@H](C)C[C@@H]3C)C[C@@H]2C)CC[C@H]([C@]2(C)CC[C@]3(C[C@H](O)[C@@H](C)[C@@H]([C@@H](C)[C@@H](OC)[C@H](C)C(=O)O)O3)O2)O1", "note": "[Coban, Monensin, USP]", "values": [{"measurement": "Lesion Score Ceca Day 28", "setting": "[1]; Day 28", "value": 0.583}, {"measurement": "Lesion Score Ileum Day 28", "setting": "[1]; Day 28", "value": 0.433}, {"measurement": "Lesion Score Duodenum Day 28", "setting": "[1]; Johnson and Reid method, Day 28", "value": 0.525}, {"measurement": "Avg Pen Body Weight (g) Day 28", "setting": "[1]; cocci challenge Day 7, Day 28", "value": 1430.88, "unit": "g"}, {"measurement": "Feed Intake (g/bird/day) Day 28", "setting": "[1]; cocci challenge Day 7, Day 28", "value": 89.499, "unit": "g/bird/day"}, {"measurement": "% Mortality Days 1-28", "setting": "[1]; [3]", "value": 1.852, "unit": "%"}, {"measurement": "Feed Conversion Ratio Corrected Days 1-28", "setting": "[1]; [4]", "value": 1.527}, {"measurement": "Coccidia Incidence Score Small Intestine Day 28", "setting": "[2]; Day 28", "value": 0.325}, {"measurement": "Lesion Score Duodenum Day 28", "setting": "[2]; Day 28", "value": 0.317}, {"measurement": "Avg Pen Body Weight (g) Day 28", "setting": "[2]; cocci challenge Day 7, Day 28", "value": 1443.182, "unit": "g"}, {"measurement": "Feed Intake (g/bird/day) Day 28", "setting": "[2]; cocci challenge Day 7, Day 28", "value": 75.493, "unit": "g/bird/day"}, {"measurement": "% Mortality Days 1-28", "setting": "[2]; [3]", "value": 3.750, "unit": "%"}, {"measurement": "Feed Conversion Ratio Corrected Days 1-28", "setting": "[2]; [4]", "value": 1.403}]}
